Laboratory results as given in ChEMBL document CHEMBL1201862, “PubChem BioAssay data set” (2004).
One block for each molecule: values may come before it. Active and inactive are the calls of the source.

Key:
Coagulation factor XII = Coagulation factor XII (Homo sapiens, UniProt P00748); type: functional;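 further: activated factor XIIa alpha cleaving a fluorogenic AMC peptide substrate; inhibitor potency from loss of enzyme activity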
[1] = molecular target: T1, Microphthalmia-associated transcription factor (Homo sapiens, UniProt O75030); assay: reducers of TRPM1 reporter luminescence, concentration series – cell-based, SK-MEL-5, cherry-picked, set 3, MITF inhibitor project, dose response (AID 493073); type: functional;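 further: SK-MEL-5 melanoma cells with luciferase driven by the MITF target TRPM1 promoter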
T1 sequence (O75030 whole entry): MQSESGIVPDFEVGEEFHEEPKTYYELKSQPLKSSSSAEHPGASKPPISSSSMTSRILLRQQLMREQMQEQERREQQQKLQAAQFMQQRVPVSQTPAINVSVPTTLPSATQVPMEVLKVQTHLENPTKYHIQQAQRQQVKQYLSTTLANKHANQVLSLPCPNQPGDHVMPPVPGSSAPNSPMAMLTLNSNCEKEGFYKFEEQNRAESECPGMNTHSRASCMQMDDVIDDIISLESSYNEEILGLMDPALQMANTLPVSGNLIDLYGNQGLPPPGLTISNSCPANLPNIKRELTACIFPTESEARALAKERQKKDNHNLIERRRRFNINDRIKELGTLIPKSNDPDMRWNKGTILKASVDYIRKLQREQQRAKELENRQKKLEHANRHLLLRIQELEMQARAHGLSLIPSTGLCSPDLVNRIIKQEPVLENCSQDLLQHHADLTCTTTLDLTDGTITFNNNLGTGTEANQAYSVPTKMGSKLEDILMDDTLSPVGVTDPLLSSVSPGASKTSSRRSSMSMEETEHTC

[2] = molecular target: T2, Voltage-gated N-type calcium channel alpha-1B subunit/Amyloid beta A4 precursor protein-binding family A member 1 (Homo sapiens, UniProt Q00975+Q02410); type: protein assay
T2 sequence (Q00975 whole entry): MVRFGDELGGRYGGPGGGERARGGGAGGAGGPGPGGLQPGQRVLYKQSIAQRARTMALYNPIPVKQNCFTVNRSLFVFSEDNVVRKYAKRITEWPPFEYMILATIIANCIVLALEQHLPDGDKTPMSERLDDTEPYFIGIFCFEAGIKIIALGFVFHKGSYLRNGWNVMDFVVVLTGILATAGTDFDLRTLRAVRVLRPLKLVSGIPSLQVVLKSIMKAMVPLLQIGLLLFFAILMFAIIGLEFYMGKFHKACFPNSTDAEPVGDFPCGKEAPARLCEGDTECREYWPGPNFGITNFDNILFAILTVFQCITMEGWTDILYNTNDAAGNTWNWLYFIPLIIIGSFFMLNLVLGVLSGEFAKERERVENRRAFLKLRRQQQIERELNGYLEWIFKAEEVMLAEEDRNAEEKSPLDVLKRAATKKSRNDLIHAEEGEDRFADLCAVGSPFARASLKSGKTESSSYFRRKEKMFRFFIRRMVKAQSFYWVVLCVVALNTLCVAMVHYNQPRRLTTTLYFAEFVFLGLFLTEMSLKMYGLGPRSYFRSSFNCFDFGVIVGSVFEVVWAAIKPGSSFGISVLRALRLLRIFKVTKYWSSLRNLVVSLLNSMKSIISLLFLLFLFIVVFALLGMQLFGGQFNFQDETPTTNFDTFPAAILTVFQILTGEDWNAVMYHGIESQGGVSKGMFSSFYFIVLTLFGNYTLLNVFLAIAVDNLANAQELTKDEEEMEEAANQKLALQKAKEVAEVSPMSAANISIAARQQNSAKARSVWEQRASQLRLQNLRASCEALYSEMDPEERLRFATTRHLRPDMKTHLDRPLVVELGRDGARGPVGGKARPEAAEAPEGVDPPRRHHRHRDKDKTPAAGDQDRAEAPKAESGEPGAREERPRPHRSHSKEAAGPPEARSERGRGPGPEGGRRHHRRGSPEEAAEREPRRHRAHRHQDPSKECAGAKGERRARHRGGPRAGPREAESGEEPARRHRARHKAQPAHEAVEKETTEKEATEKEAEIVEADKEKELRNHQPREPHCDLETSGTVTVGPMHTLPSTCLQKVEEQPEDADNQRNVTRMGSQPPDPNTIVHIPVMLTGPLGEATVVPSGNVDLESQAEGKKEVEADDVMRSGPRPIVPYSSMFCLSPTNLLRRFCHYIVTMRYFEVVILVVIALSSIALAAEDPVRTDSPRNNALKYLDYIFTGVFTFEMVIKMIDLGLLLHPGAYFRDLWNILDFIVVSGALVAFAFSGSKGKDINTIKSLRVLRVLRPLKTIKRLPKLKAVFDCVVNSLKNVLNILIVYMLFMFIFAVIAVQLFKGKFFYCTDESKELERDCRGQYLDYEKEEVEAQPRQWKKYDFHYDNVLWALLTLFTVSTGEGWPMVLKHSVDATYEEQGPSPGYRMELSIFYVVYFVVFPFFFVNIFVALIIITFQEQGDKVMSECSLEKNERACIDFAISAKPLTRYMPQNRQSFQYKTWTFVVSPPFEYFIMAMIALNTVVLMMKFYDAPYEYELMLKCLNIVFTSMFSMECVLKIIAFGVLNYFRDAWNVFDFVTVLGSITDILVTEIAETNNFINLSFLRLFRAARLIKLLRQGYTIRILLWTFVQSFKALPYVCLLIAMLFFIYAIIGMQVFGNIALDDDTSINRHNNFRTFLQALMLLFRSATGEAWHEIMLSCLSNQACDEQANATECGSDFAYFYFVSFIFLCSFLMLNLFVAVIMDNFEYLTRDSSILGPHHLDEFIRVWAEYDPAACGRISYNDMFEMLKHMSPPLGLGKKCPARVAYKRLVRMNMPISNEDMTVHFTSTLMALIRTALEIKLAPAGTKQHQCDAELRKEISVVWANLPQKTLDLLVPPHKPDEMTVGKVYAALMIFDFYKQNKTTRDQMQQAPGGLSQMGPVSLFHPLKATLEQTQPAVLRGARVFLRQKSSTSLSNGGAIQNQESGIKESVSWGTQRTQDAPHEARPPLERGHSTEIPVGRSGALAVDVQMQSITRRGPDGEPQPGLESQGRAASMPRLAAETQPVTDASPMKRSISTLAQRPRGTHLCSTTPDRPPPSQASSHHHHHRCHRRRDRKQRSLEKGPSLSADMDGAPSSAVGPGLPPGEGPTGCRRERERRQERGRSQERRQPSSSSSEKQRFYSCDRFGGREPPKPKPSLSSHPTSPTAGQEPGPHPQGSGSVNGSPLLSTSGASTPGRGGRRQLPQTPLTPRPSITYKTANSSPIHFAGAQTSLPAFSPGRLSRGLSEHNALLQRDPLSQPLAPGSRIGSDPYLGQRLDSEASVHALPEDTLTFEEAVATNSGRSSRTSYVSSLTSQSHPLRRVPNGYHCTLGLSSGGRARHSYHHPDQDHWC
T2 sequence (Q02410 whole entry): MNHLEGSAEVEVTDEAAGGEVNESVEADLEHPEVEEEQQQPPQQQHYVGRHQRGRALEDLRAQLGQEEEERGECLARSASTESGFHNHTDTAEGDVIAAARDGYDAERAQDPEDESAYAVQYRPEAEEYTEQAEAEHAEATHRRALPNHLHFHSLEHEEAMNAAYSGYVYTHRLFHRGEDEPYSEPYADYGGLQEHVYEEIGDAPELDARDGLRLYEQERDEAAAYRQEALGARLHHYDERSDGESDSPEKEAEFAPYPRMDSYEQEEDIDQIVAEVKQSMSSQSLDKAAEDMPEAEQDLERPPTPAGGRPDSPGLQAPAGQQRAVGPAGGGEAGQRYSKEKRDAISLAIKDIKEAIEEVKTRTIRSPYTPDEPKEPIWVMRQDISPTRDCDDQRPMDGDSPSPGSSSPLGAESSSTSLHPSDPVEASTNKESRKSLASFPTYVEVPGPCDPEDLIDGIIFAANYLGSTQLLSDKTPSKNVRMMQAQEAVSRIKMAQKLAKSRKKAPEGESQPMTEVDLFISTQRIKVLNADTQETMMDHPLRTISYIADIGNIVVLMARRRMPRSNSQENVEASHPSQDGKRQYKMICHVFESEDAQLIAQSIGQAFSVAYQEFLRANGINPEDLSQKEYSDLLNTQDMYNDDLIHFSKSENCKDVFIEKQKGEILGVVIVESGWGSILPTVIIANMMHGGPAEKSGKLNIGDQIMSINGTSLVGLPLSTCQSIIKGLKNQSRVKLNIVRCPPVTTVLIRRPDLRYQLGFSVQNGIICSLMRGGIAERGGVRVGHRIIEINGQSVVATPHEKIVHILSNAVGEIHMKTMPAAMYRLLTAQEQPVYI

[3] = molecular target: T2, Voltage-gated N-type calcium channel alpha-1B subunit/Amyloid beta A4 precursor protein-binding family A member 1; type: protein assay; remark: listed apart in the source
[4] = molecular target: Hepatocyte nuclear factor 4-alpha (Homo sapiens, UniProt P41235); type: functional, cell-based;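 further: biochemical luminescence-based dose-response counterscreen measuring inhibition of HNF4 dimerization, run alongside a screen for blockers of ABHD5–perilipin-5 interaction; split luciferase complementation of HNF4 fusion proteins in cell lysate measuring dimerization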
[5] = molecular target: E3 ubiquitin-protein ligase Mdm2 (Homo sapiens, UniProt Q00987); assay: MDM2-luc reporter signal enhancers, multi-concentration potency testing, MDM2 ubiquitin-protein ligase inhibitor program, whole-cell format, luminescence detection, 384-well microplate (AID 1394); type: functional;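 further: MDM2 E3 inhibitors raise luminescence so EC50 is for signal enhancement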
[6] = molecular target: Voltage-dependent T-type calcium channel subunit alpha-1H (Homo sapiens, UniProt O95180); assay: human CACNA1H calcium influx blockade – cell-based, synthetic library set 2, HEK293 HH8, Fluo-4, SAR follow-up (AID 493023); type: functional
[7] = molecular target: Signal transducer and activator of transcription 3 (Homo sapiens, UniProt P40763); assay: STAT3 blockade with qPCR and toxicity readouts – cell-based, STAT1 panel, cytotoxicity, late-stage follow-up, panel member STAT3 Inhibition (AID 2078)
[8] = molecular target: Signal transducer and activator of transcription 1-alpha/beta (Homo sapiens, UniProt P42224); assay: STAT3 blockade with qPCR and toxicity readouts – cell-based, STAT1 panel, cytotoxicity, late-stage follow-up, panel member STAT1 Inhibition (AID 2078)
[9] = molecular target: T3, Kappa-type opioid receptor (Homo sapiens, UniProt P41145); assay: kappa opioid receptor blockers, image-based, SAR follow-up (AID 2348); type: functional
T3 sequence (P41145 whole entry): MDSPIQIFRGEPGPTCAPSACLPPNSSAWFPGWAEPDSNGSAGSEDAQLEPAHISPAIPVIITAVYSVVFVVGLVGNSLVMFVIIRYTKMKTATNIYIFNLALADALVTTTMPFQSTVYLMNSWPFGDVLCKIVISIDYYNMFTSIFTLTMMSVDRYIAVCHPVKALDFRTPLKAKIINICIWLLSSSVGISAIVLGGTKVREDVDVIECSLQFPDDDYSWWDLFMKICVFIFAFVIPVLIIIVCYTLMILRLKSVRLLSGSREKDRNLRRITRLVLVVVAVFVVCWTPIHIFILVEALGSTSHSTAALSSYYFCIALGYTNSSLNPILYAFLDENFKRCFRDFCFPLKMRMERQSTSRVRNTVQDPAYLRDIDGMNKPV

Mu-type opioid receptor [10] = molecular target: T4, Mu-type opioid receptor (Homo sapiens, UniProt P35372); assay: mu opioid receptor blockers – image-based, SAR follow-up (AID 2420); type: functional;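 further: compounds added before stimulation of receptor with agonist DAMGO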
T4 sequence (P35372 whole entry): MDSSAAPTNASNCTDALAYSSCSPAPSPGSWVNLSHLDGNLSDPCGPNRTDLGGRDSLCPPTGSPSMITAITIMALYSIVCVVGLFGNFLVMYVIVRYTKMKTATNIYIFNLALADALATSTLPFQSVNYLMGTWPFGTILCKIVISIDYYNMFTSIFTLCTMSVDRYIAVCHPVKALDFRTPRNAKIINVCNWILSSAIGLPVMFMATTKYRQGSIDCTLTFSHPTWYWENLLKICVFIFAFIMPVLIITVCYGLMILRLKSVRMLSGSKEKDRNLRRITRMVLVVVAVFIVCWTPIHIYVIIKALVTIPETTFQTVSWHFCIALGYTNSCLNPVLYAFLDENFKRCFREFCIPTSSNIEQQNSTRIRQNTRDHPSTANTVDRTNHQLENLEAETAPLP

[11] = molecular target: T3, Kappa-type opioid receptor; assay: kappa opioid receptor blockers, cell-based, luminescence, beta-arrestin, SAR follow-up (AID 2285); type: functional
[12] = molecular target: Dual specificity protein phosphatase 3 (Homo sapiens, UniProt P51452); assay: SAR VHR1 Fluorescent Assay for In Vitro dose response studies Set 2. [Related pubchem assays (depositor defined):AID1654, AID1661, AID1878]; type: functional
[13] = molecular target: T5, Tyrosine-protein phosphatase non-receptor type 7 (Homo sapiens, UniProt P35236); assay: SAR analysis of chemical inhibitors of HePTP using a Fluorescent assay - Set 2. [Related pubchem assays (depositor defined):AID1059, AID1077, AID1661, AID2085, AID521]; type: functional
T5 sequence (P35236 whole entry): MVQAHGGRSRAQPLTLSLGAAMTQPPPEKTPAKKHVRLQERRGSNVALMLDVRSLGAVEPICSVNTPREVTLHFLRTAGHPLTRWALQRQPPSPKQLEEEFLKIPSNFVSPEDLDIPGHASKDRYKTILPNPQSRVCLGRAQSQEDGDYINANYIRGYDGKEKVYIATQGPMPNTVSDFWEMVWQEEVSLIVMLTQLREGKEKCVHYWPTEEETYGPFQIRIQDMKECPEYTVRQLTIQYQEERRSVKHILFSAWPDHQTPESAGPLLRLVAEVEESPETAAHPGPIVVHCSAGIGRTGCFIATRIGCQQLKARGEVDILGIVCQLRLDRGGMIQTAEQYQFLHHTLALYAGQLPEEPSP

Mu-type opioid receptor [14] = molecular target: T4, Mu-type opioid receptor; assay: mu opioid receptor activators, image-based, SAR follow-up (AID 2352); type: functional
[15] = molecular target: T3, Kappa-type opioid receptor; assay: kappa opioid receptor activation potency – imaging, image-based, SAR follow-up (AID 2359); type: functional
[16] = molecular target: T6, Delta-type opioid receptor (Homo sapiens, UniProt P41143); assay: delta opioid receptor blockers – image-based, SAR follow-up (AID 2357); type: functional
T6 sequence (P41143 whole entry): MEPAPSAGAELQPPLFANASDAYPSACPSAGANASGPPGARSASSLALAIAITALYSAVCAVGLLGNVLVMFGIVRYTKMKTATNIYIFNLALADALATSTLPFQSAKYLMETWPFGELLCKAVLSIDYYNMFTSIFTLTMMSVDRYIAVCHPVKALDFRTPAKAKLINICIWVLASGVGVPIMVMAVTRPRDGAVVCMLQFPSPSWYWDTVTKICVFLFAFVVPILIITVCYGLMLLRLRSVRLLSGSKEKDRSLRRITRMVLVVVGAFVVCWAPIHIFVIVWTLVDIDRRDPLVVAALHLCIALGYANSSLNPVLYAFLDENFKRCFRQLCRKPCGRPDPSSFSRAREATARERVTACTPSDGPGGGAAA

[17] = molecular target: T6, Delta-type opioid receptor; assay: DOR agonists, SAR follow-up, image-based (AID 2370); type: functional
[18] = molecular target: T3, Kappa-type opioid receptor; assay: kappa opioid receptor activation by imaging – image-based, set 3, SAR follow-up (AID 488833); type: functional
Mu-type opioid receptor [19] = molecular target: T4, Mu-type opioid receptor; assay: SAR Analysis of Agonists of the MOR Receptor using an Image-Based Assay - Set 3. [Related pubchem assays (depositor defined):AID1777, AID1785, AID1786, AID1966, AID2133, AID2136, AID2284, AID2285, AID2352]; type: functional
[20] = molecular target: T6, Delta-type opioid receptor; assay: SAR Analysis of Agonists of the DOR Receptor using an Image-Based Assay - Set 3. [Related pubchem assays (depositor defined):AID1777, AID1786]; type: functional
[21] = molecular target: T3, Kappa-type opioid receptor; assay: SAR analysis of small molecule agonists of the kappa opioid receptor via a luminescent beta-arrestin assay - Set 3. [Related pubchem assays (depositor defined):AID1777, AID1785, AID1786, AID1966, AID2133, AID2136, AID2284, AID2500]; type: functional
[22] = molecular target: T7, Sphingosine 1-phosphate receptor 4 (Homo sapiens, UniProt O95977); assay: Late-stage fluorescence dose response cell-based assay to identify agonists of the Sphingosine 1-Phosphate Receptor 4 (S1P4): purchased compounds EC50. [Related pubchem assays (depositor defined):AID1509, AID1523, AID1563, AID1686, AID1701, AID1801]; type: functional
T7 sequence (O95977 whole entry): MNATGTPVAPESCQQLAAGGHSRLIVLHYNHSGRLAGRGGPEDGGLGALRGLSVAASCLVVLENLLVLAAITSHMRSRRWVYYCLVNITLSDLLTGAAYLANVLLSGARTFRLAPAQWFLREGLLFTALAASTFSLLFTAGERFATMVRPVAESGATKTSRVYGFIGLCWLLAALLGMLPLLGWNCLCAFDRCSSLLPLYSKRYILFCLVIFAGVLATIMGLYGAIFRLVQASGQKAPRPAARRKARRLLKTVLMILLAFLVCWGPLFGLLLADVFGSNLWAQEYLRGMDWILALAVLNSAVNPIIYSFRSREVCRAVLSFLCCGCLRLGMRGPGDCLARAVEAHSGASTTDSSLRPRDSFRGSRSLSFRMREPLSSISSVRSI

Chain of Coagulation factor XII (P00748 20-372 limits assumed): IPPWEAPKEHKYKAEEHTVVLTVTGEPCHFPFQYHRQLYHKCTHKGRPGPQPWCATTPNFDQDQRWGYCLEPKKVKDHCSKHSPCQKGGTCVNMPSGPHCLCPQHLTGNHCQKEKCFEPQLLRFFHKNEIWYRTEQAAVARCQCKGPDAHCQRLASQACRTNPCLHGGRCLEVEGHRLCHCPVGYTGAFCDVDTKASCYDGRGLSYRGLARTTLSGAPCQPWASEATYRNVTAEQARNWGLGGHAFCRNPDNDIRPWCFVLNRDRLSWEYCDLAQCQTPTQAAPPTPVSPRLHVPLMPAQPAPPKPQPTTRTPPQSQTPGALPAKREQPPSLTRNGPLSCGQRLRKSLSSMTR
Chain of Coagulation factor XII (P00748 373-615 limits assumed): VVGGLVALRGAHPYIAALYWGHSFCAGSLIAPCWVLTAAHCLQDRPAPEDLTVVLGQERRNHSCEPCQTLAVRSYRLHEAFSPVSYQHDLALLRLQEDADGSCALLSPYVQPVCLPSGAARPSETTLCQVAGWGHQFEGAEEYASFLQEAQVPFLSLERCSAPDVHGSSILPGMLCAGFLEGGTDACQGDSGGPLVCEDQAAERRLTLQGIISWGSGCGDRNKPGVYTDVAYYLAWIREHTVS

Compound: c1ccc(Cc2nc(N3CCC(Cc4ccccc4)CC3)c3c4c(sc3n2)CCCC4)cc1
IC50 [7]: > 55.7 µM (inactive)
IC50 [8]: > 55.7 µM (inactive)

Compound: Cc1ccc(NC(=S)NC(NC(=O)OCc2ccccc2)C(Cl)(Cl)Cl)cc1 (stereo not drawn)
IC50 [9]: > 32 µM (inactive)
IC50 (Mu-type opioid receptor [10]): > 32 µM (inactive)
IC50 [11]: > 10 µM (inactive)
IC50 [12]: > 100 µM (inactive)
IC50 [13]: > 100 µM (inactive)
EC50 (Mu-type opioid receptor [14]): > 32 µM (inactive)
EC50 [15]: > 32 µM (inactive)
IC50 [16]: > 32 µM (inactive)
EC50 [17]: > 32 µM (inactive)

Compound: Clc1ccccc1CSc1nnc(-c2ccccn2)n1Cc1cccs1
EC50 [18]: 4.06 µM (active)
EC50 (Mu-type opioid receptor [19]): > 32 µM (inactive)
EC50 [20]: > 32 µM (inactive)
EC50 [21]: 10.1 µM (inactive)

Now from value to molecule:

IC50 (Coagulation factor XII): > 50 µM (inactive)
Compound: CC(C(=O)Oc1ccc2c(c1)OCO2)N1C(=O)c2ccccc2C1=O (stereo not drawn)

AC50 [1]: 12.7 µM (active)
IC50 [2]: > 50 µM (inactive)
IC50 [3]: > 56.8 µM (not active)
IC50 [4]: 1.51 µM (active)
EC50 [5]: 0.94 µM (active)
Compound: COCCNC(=O)/C(C#N)=C/c1cccc(/C=C(\C#N)C(=O)NCCOC)c1

EC50 [6]: 10 µM (active)
Compound: CC(C)(C)CCN1CCC[C@H](NC(=O)COc2ccccc2Cl)C1

EC50 [22]: > 50 µM (inactive)
Compound: Cc1ccc(OCc2ccc(Cl)cc2)c([N+](=O)[O-])n1
